Consider 26 compounds from patent publication US11230556B2 (Merck Sharp & Dohme Corp., priority 2016, dated 2022).

The test addresses T1, human M4 muscarinic acetylcholine receptor (Homo sapiens, UniProt P08173).
T1 construct: expressed in transfected cells; host or cells: CHO-K1
T1 sequence (P08173 1-479): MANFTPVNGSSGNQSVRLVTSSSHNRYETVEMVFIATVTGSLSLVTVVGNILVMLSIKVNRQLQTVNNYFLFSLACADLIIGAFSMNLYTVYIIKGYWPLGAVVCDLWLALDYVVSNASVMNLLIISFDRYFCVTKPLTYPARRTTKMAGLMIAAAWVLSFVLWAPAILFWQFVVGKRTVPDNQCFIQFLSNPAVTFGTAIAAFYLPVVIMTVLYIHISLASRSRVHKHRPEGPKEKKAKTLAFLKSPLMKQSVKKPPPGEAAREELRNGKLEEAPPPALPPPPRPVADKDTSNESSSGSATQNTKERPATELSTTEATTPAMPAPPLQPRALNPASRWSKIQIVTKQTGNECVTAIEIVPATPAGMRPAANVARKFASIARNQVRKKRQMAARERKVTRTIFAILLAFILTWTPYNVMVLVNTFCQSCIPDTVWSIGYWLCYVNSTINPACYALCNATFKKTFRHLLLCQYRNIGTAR
The test is described as follows: human FLIPR-based M4 PAM assay (CHO-K1 cells with human M4 receptor and Gαqi5, calcium dye fluorescence, acetylcholine at 20% of maximum response). The format is cell-based. The note with it: inflection point (IP) of 4 parameter logistic dose response curve, human M4 receptor + Gαqi5, FLIPR Tetra. How it is done:
In a typical experiment the M4 muscarinic acetylcholine receptor modulating activity of the compounds of the present invention was determined in accordance with the following experimental method. CHO-K1 cells stably transfected with human M4 receptor and chimeric G-protein Gαqi5 (Coward P, et al., Analytical Biochemistry, 270:242-248 (1999)) are thawed from liquid N2 storage, resuspended in growth medium, plated in black, clear bottom 384 well plates, and incubated 16-20 hours at 37° C., 5% CO2. On the day of assay, growth medium is removed, the cells are washed 2 times with wash buffer, and cells are incubated in dye loading buffer at 37° C., 5% CO2 for ˜1 hour. Following dye loading the cell plates are placed in a FLIPR Tetra instrument and while monitoring dye fluorescence (excitation […]), 10 uL of test substance at increasing concentrations is added, and fluorescence values are recorded for 4 min. Next, 10 uL of acetylcholine is added (final concentration calculated so as to achieve 20% of the maximum acetycholine response), and the fluorescence reading is continued for 3.5 min. In some cases, a third addition of acetylcholine (final concentration calculated to achieve 70% of the maximal acetylcholine response) is performed. The resulting dose response curves are fit to a 4 parameter logistic equation and the final result is determined as the inflection point (IP) of the curve
CHO-K1 cells stably transfected with human M4 receptor and chimeric G-protein Gαqi5 are thawed from liquid N2 storage, resuspended in growth medium, plated in black, clear bottom 384 well plates, and incubated 16-20 hours at 37° C., 5% CO2.
On the day of assay, growth medium is removed, the cells are washed 2 times with wash buffer, and cells are incubated in dye loading buffer at 37° C., 5% CO2 for ˜1 h. Following dye loading the cell plates are placed in a FLIPR Tetra instrument and while monitoring dye fluorescence ([…]), 10 uL of test substance at increasing concentrations is added, and fluorescence values are recorded for 4 min. Next, 10 uL of acetylcholine is added (final concentration calculated so as to achieve 20% of the maximum acetycholine response), and the fluorescence reading is continued for 3.5 min. In some cases, a third addition of acetylcholine (final concentration calculated to achieve 70% of the maximal acetylcholine response) is performed.
For `COc1ccc(OC2CCN(c3nc4c(cc3C)CN(C(=O)C3(C)COC3)C4)CC2)cn1` [Example 42, (2-(4-((6-methoxypyridin-3-yl)oxy)piperidin-1-yl)-3-methyl-5,7-dihydro-6H-pyrrolo[3,4-b]pyridin-6-yl)(3-methyloxetan-3-yl)methanone], the 50% effective concentration (EC50) worked out at 200 nM.
In the case of `COc1ccc(OC2CCN(c3nc4c(cc3C)C(O)CC4)CC2)cn1` (single isomer, unassigned) [Example 71B], the concentration for a half-maximal effect (EC50) came to 1050 nM.
On to `Cc1cn2c(=O)[nH]nc2nc1N1CC[C@@H](Oc2ccc3c(cnn3C)c2)[C@H](F)C1` [Example 7, 7-((3R,4R)-3-fluoro-4-((1-methyl-1H-indazol-5-yl)oxy)piperidin-1-yl)-6-methyl-[1,2,4]triazolo[4,3-a]pyrimidin-3(2H)-one], for which the concentration giving a half-maximal response (EC50) was 138 nM.
For `Cc1cn2c(=O)[nH]nc2nc1N1CCC(Oc2ccc3c(c2)C(=O)N(C2CC2)C3)CC1` [Example 6, 7-(4-((2-cyclopropyl-3-oxoisoindolin-5-yl)oxy)piperidin-l-yl)-6-methyl-[1,2,4]triazolo[4,3-a]pyrimidin-3(2H)-one], the EC50 was determined as 168 nM.
For `Cc1cc2c(nc1N1CCC(Oc3cccc(C#N)c3)CC1)COC2=O` [Example 32, 3-((1-(3-methyl-5-oxo-5,7-dihydrofuro[3,4-b]pyridin-2-yl)piperidin-4-yl)oxy)benzonitrile], the EC50 is 14 nM.
Turning to `COc1ccc(OC2CCN(c3nc4c(cc3C)C(=O)C(C)C4)CC2)cn1` (centres unmarked) [Example 74, 2-(4-((6-Methoxypyridin-3-yl)oxy)piperidin-1-yl)-3,6-dimethyl-6,7-dihydro-5H-cyclopenta[b]pyridin-5-one], the EC50 worked out at 119 nM.
Take `COC(=O)N1Cc2cc(C)c(N3CCC(Oc4ccc(OC)nc4)CC3)nc2C1` [Example 61, methyl 2-(4-((6-methoxypyridin-3-yl)oxy)piperidin-1-yl)-3-methyl-5,7-dihydro-6H-pyrrolo[3,4-b]pyridine-6-carboxylate]: the concentration for a half-maximal effect (EC50) turned out to be 156 nM.
Regarding `COc1ccc(OC2CCN(c3nc4c(cc3C)CN(C(=O)C3CN(C)C3)C4)CC2)cn1` [Example 52, (2-(4-((6-methoxypyridin-3-yl)oxy)piperidin-1-yl)-3-methyl-5,7-dihydro-6H-pyrrolo[3,4-b]pyridin-6-yl)(1-methylazetidin-3-yl)methanone], the concentration giving a half-maximal response (EC50) came out at 453 nM.
The same measure for `COc1ccc(OC2CCN(c3nc4c(cc3C)CN(C(=O)CCN(C)C)C4)CC2)cn1` [Example 53, 3-(dimethylamino)-1-(2-(4-((6-methoxypyridin-3-yl)oxy)piperidin-1-yl)-3-methyl-5,7-dihydro-6H-pyrrolo[3,4-b]pyridin-6-yl)propan-1-one]: 502 nM.
Regarding `COc1ccc(OC2CCN(c3nc4nn(CCO)c(=O)n4cc3C)CC2)cn1` [Example 14, 2-(2-hydroxyethyl)-7-(4-((6-methoxypyridin-3-yl)oxy)piperidin-1-yl)-6-methyl-[1,2,4]triazolo[4,3-a]pyrimidin-3(2H)-one], the EC50 was determined as 69 nM.
With `COc1ccc(OC2CCN(c3nc4c(cc3C)CN(C(=O)C3CCO3)C4)CC2)cn1` (centres unmarked) [Example 48, (2-(4-((6-methoxypyridin-3-yl)oxy)piperidin-1-yl)-3-methyl-5,7-dihydro-6H-pyrrolo[3,4-b]pyridin-6-yl)(oxetan-2-yl)methanone], the EC50 came to 167 nM.
Then `COc1ccc(OC2CCN(c3nc4c(cnn4C)cc3C)CC2)cn1` [Example 38, 6-(4-((6-methoxypyridin-3-yl)oxy)piperidin-1-yl)-1,5-dimethyl-1H-pyrazolo[3,4-b]pyridine], with 397 nM.
With `Cc1cn2c(=O)[nH]nc2nc1N1CCC(Oc2ccccc2)CC1` [Example 15, 6-Methyl-7-(4-phenoxypiperidine-1-yl)-[1.2.4]triazolo[4,3-a]pyrimidin-3(2H)-one], the concentration for a half-maximal effect (EC50) was 55 nM.
The same measure for `COc1ccc(OC2CCN(c3nc4n[nH]c(=O)n4cc3C)CC2)cn1` [Example 4]: 55 nM; for `COc1ccc(OC2CCN(c3nc4[nH]c(=O)[nH]c4cc3C)CC2)cn1` [Example 79, 5-(4-((6-Methoxypyridin-3-yl)oxy)piperidin-1-yl)-6-methyl-1,3-dihydro-2H-imidazo[4,5-b]pyridin-2-one]: 1170 nM.
Turning to `COc1ccc(OC2CCN(c3nc4c(cc3C)CN(S(=O)(=O)C3CC3)C4)CC2)cn1` [Example 58, 6-(Cyclopropylsulfonyl)-2-(4-((6-methoxypyridin-3-yl)oxy)piperidin-1-yl)-3-methyl-6,7-dihydro-5H-pyrrolo[3,4-b]pyridine], the EC50 was determined as 168 nM.
Take `COc1ccc(OC2CCN(c3nc4nn(C)c(=O)n4cc3C)CC2)cn1` [Example 11, 7-(4-((6-methoxypyridin-3-yl)oxy)piperidin-1-yl)-2,6-dimethyl-[1,2,4]triazolo[4,3-a]pyrimidin-3(2H)-one]: the 50% effective concentration (EC50) was 87 nM.
As to `COc1ccc(OC2CCN(c3nc4c(cc3C)COC4=O)CC2)cn1` [Example 20, 2-(4-((6-Methoxypyridin-3-yl)oxy)piperidin-1-yl)-3-methylfuro[3,4-b]pyridin-7(5H)-one], the concentration for a half-maximal effect (EC50) came to 151 nM.
The same measure for `Cc1cn2c(=O)n(C)nc2nc1N1CCC(OCC2CCCC2)CC1` [Example 12, 7-(4-(cyclopentylmethoxy)piperidin-1-yl)-2,6-dimethyl-[1,2,4]triazolo[4,3-a]pyrimidin-3(2H)-one]: 718 nM; for `Cc1cc2c(nc1N1CCC(Oc3ccc4c(c3)COC4)CC1)C1COCCN1C2=O` (single isomer, unassigned) [Example 81A]: 29 nM.
For the compound `Cc1cn2c(=O)n(C)nc2nc1N1CC[C@@H](Oc2ccc3c(cnn3C)c2)[C@@H](F)C1` [Example 10, 7-((3S,4R)-3-fluoro-4-((1-methyl-1H-indazol-5-yl)oxy)piperidin-1-yl)-2,6-dimethyl-[1,2,4]triazolo[4,3-a]pyrimidin-3(2H)-one], the half-maximal effective concentration (EC50) is 81 nM.
As for `COc1ccc(OC2CCN(c3nc4nccn4c(Cl)c3C)CC2)cn1` [Example 28, 5-chloro-7-(4-((6-methoxypyridin-3-yl)oxy)piperidin-1-yl)-6-methylimidazo[1,2-a]pyrimidine], the EC50 was 589 nM.
For the compound `COc1ccc(OC2CCN(c3nc4cn(C)nc4cc3C)CC2)cn1` [Example 64, 5-(4-((6-Methoxypyridin-3-yl)ox)piperidin-1-yl)-2,6-dimethyl-2H-pyrazolo[4,3-b]pyridine], the EC50 is 242 nM.
Then `COC(=O)N1Cc2cc(C)c(N3CCC(Oc4ccccc4)CC3)nc2C1` [Example 62, methyl 3-methyl-2-(4-phenoxypiperidin-1-yl)-5,7-dihydro-6H-pyrrolo[3,4-b]pyridine-6-carboxylate], with 114 nM; and `Cc1cn2c(=O)n(CCO)nc2nc1N1CCC(Oc2ccc3c(c2)COC3)CC1` [Example 13, 7-(4-((1,3-Dihydro-2-benzofuran-5-yl)oxy)piperidin-1-yl)-2-(2-hydroxyethyl)-6-methyl-[1,2,4]triazolo[4,3-a]pyrimidin-3(2H)-one], with 47 nM; and `COc1ccc(OC2CCN(c3nc4c(cc3C)CNC4)CC2)cn1` [Example 34, 2-(4-((6-Methoxypyridin-3-yl)oxy)piperidin-1-yl)-3-methyl-6,7-dihydro-5H-pyrrolo[3,4-b]pyridine], with 349 nM.
